Read-outs that look alike come from different tables or passages of the source.
What was measured:
[1] = system: NIH3T3 (mouse embryo fibroblast cell line); test: MTT cell viability assay, NIH3T3 healthy cells; format: cell-based
[2] = system: Topo II; design: method as in PMID 35870412; conditions: read-out: IC50 Topo II enzyme inhibition; cited from earlier work
[3] = system: A549 (lung carcinoma cell line); test: MTT cell viability assay, A549; format: cell-based; conditions: Homo sapiens
Experimental: (§1) The anticancer activity of compounds 4a–l were screened according to the MTT assays. The MTT assays were performed as previously described.[3] Anticancer activity of final compounds was assessed against […] A549 (lung carcinoma cell line) and C6 (rat glioma cell line) cell lines.

[4] = system: C6 (rat glioma cell line); test: MTT cell viability assay, C6; format: cell-based
Experimental: as §1

[5] = molecular target: T1, DNA topoisomerase I (Homo sapiens, UniProt P11387); test: DNA topoisomerase I assay (TopoGen kit, relaxation of supercoiled plasmid DNA, agarose gel); format: biochemical; conditions: supercoiled plasmid DNA pHOT 1, 30 min at 37 °C
T1 construct: purchased TopoGen TG1018–2
T1 sequence (P11387 1-765): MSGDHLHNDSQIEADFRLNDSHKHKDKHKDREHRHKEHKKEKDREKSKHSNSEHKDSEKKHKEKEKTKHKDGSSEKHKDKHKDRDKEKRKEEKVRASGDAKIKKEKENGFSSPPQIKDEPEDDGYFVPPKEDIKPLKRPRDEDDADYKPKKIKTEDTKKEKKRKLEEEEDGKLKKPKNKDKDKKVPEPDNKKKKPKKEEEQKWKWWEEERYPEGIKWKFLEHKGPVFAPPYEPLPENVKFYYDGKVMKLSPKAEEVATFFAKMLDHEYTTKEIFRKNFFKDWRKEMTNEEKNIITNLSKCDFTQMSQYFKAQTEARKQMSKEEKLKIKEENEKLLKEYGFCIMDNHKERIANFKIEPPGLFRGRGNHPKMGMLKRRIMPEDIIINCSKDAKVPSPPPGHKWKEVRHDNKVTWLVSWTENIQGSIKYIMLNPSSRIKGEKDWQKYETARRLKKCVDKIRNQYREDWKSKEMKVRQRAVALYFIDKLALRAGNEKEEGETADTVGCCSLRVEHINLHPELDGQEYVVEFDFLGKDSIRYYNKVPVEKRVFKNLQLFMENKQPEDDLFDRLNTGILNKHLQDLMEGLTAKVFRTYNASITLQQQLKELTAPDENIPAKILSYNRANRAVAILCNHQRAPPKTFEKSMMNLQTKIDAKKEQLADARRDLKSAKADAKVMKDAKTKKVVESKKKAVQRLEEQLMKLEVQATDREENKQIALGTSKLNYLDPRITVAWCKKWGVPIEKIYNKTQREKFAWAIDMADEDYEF
Experimental: Topogen’s Topoisomerase I Drug Screening Kit was used to investigate the topoisomerase I effects of the compounds. With this kit, it is determined whether the compounds that inhibit Topo I activity act as catalytic inhibitors or topoisomerase poisons. Topoisomerase I inhibition activities of compounds 4b, 4h, Hoechst 33342, and camptothecin were evaluated in vitro and the analysis of the reaction products was visualized by the electrophoresis method. Supercoiled plasmid DNA (pHOT 1) was used as the control group. As another control group, plasmid DNA and topoisomerase I were used to ensure that the DNA became relaxed. Hoechst 33342, known as a topoisomerase poison, and camptothecin were used as positive controls.
Using agarose gel electrophoresis, the topoisomerase I inhibitory activities of the final compounds were assessed by measuring the relaxation of supercoiled plasmid DNA. A positive control, camptothecin, was used. A final volume of 20 μL reaction volume was used for the experiment, which contained 2 μL of 10× TGS buffer, […], 2 μL of supercoiled plasmid DNA, 2 μL of the test compound, 2 μL of Topo I, 2 μl of 10% SDS, 2 μL of proteinase K, and 2 μL of the DNA loading dye. Following a 30 min incubation period at 37 °C, the reaction mixtures were electrophoresed using 1× TAE buffer for 75 min at a potential of 50 V on a 1% agarose gel.[25]

Row | IC50 [3] | IC50 [4] | melting point | Compound | IC50 ([1]; NIH3T3, heading: IC50 NIH3T3) | IC50 [2] | IC50 [1] | Topoisomerase I inhibitory effect (gel electrophoresis) [5]
1 | – | – | – | COc1cccc2c1C(=O)c1c(O)c3c(c(O)c1C2=O)C[C@@](O)(C(=O)CO)C[C@@H]3O[C@H]1C[C@H](N)[C@H](O)[C@H](C)O1 [doxorubicin, reference compound] | 1.06 ± 0.00917 µM | – | – | –
2 | – | – | – | CN[C@@H]1C[C@H]2O[C@@](C)([C@@H]1OC)n1c3ccccc3c3c4c(c5c6ccccc6n2c5c31)C(=O)NC4 [staurosporine] | – | 4.64 µM | – | –
3 | 24.9 ± 1.21 µM | 64.6 ± 2.66 µM | 162.2 °C | CCOc1ccc(-c2nc3ccc(-c4nnc(SCC(=O)N5CCN(c6ccccn6)CC5)n4CC)cc3[nH]2)cc1 [4k, 2-((4-Ethyl-5-(2-(4-ethoxyphenyl)-1H-benzo[d]imidazol-6-yl)-4H-1,2,4-triazol-3-yl)thio)-1-(4-(2-pyridinyl)piperazin-1-yl)ethanone] | – | – | 46.4 ± 1.21 µM | –
4 | 7.34 ± 0.21 µM | 42.1 ± 2.1 µM | 319 °C | CCn1c(SCC(=O)N2CCN(c3ccccc3)CC2)nnc1-c1ccc2nc(-c3ccc(O)cc3)[nH]c2c1 [4b, 2-((4-Ethyl-5-(2-(4-hydroxyphenyl)-1H-benzo[d]imidazol-6-yl)-4H-1,2,4-triazol-3-yl)thio)-1-(4-phenylpiperazin-1-yl)ethanone] | – | – | 56.7 ± 1.18 µM | significant inhibitory activity
5 | 4.56 ± 0.18 µM | 13.2 ± 0.46 µM | 190.5 °C | CCn1c(SCC(=O)N2CCN(c3ncccn3)CC2)nnc1-c1ccc2nc(-c3ccc(OC)cc3)[nH]c2c1 [4h, 2-((4-Ethyl-5-(2-(4-methoxyphenyl)-1H-benzo[d]imidazol-6-yl)-4H-1,2,4-triazol-3-yl)thio)-1-(4-(2-pyrimidinyl)piperazin-1-yl)ethanone] | – | – | 74.4 ± 2.68 µM | significant inhibitory activity
6 | 54.4 ± 1.84 µM | > 100 µM | 144 °C | CCn1c(SCC(=O)N2CCN(c3ncccn3)CC2)nnc1-c1ccc2nc(-c3ccc(O)cc3)[nH]c2c1 [4d, 2-((4-Ethyl-5-(2-(4-hydroxyphenyl)-1H-benzo[d]imidazol-6-yl)-4H-1,2,4-triazol-3-yl)thio)-1-(4-(2-pyrimidinyl)piperazin-1-yl)ethanone] | – | – | 80.5 ± 2.76 µM | –
7 | 15.8 ± 0.63 µM | 24 ± 2.4 µM | 312.4 °C | CCn1c(SCC(=O)N2CCN(c3ccccn3)CC2)nnc1-c1ccc2nc(-c3ccc(O)cc3)[nH]c2c1 [4c, 2-((4-Ethyl-5-(2-(4-hydroxyphenyl)-1H-benzo[d]imidazol-6-yl)-4H-1,2,4-triazol-3-yl)thio)-1-(4-(2-pyridinyl)piperazin-1-yl)ethanone] | – | – | 32.2 ± 0.74 µM | –
8 | 33 ± 1.42 µM | 39.4 ± 2.58 µM | 144.3 °C | CCOc1ccc(-c2nc3ccc(-c4nnc(SCC(=O)N5CCN(CC)CC5)n4CC)cc3[nH]2)cc1 [4i, 2-((4-Ethyl-5-(2-(4-ethoxyphenyl)-1H-benzo[d]imidazol-6-yl)-4H-1,2,4-triazol-3-yl)thio)-1-(4-ethylpiperazin-1-yl)ethanone] | – | – | 30.6 ± 1.08 µM | –
9 | 54.1 ± 2.18 µM | > 100 µM | 118.8 °C | CCOc1ccc(-c2nc3ccc(-c4nnc(SCC(=O)N5CCN(c6ccccc6)CC5)n4CC)cc3[nH]2)cc1 [4j, 2-((4-Ethyl-5-(2-(4-ethoxyphenyl)-1H-benzo[d]imidazol-6-yl)-4H-1,2,4-triazol-3-yl)thio)-1-(4-phenylpiperazin-1-yl)ethanone] | – | – | 69.5 ± 2.85 µM | –
10 | – | – | – | CC[C@@]1(O)C(=O)OCc2c1cc1n(c2=O)Cc2cc3ccccc3nc2-1 [camptothecin, reference compound] | – | – | – | strong inhibitory effect as a topoisomerase poison
11 | 21.8 ± 1.04 µM | > 100 µM | 223.5 °C | CCN1CCN(C(=O)CSc2nnc(-c3ccc4nc(-c5ccc(O)cc5)[nH]c4c3)n2CC)CC1 [4a, 2-((4-Ethyl-5-(2-(4-hydroxyphenyl)-1H-benzo[d]imidazol-6-yl)-4H-1,2,4-triazol-3-yl)thio)-1-(4-ethylpiperazin-1-yl)ethanone] | – | – | 64.8 ± 1.96 µM | –
12 | 69.4 ± 3.04 µM | > 100 µM | 153.8 °C | CCn1c(SCC(=O)N2CCN(c3ccccc3)CC2)nnc1-c1ccc2nc(-c3ccc(OC)cc3)[nH]c2c1 [4f, 2-((4-Ethyl-5-(2-(4-methoxyphenyl)-1H-benzo[d]imidazol-6-yl)-4H-1,2,4-triazol-3-yl)thio)-1-(4-phenylpiperazin-1-yl)ethanone] | – | – | 92.8 ± 3.06 µM | –
13 | 12.4 ± 0.54 µM | 38.8 ± 1.82 µM | 140.8 °C | CCOc1ccc(-c2nc3ccc(-c4nnc(SCC(=O)N5CCN(c6ncccn6)CC5)n4CC)cc3[nH]2)cc1 [4l, 2-((4-Ethyl-5-(2-(4-ethoxyphenyl)-1H-benzo[d]imidazol-6-yl)-4H-1,2,4-triazol-3-yl)thio)-1-(4-(2-pyrimidinyl)piperazin-1-yl)ethanone] | – | – | 35.7 ± 1.11 µM | –
14 | 0.422 ± 0.02 µM | 1.05 ± 0.3 µM | – | CCOc1ccc(-c2nc3ccc(-c4nc5cc(N6CCN(C)CC6)ccc5[nH]4)cc3[nH]2)cc1 [Hoechst 33342, reference compound] | – | – | 13 ± 0.598 µM | strong inhibitory effect as a topoisomerase poison
15 | 87.2 ± 3.97 µM | > 100 µM | 204.3 °C | CCn1c(SCC(=O)N2CCN(c3ccccn3)CC2)nnc1-c1ccc2nc(-c3ccc(OC)cc3)[nH]c2c1 [4g, 2-((4-Ethyl-5-(2-(4-methoxyphenyl)-1H-benzo[d]imidazol-6-yl)-4H-1,2,4-triazol-3-yl)thio)-1-(4-(2-pyridinyl)piperazin-1-yl)ethanone] | – | – | 85.9 ± 2.92 µM | –
16 | 75.7 ± 2.55 µM | > 100 µM | 112.7 °C | CCN1CCN(C(=O)CSc2nnc(-c3ccc4nc(-c5ccc(OC)cc5)[nH]c4c3)n2CC)CC1 [4e, 2-((4-Ethyl-5-(2-(4-methoxyphenyl)-1H-benzo[d]imidazol-6-yl)-4H-1,2,4-triazol-3-yl)thio)-1-(4-ethylpiperazin-1-yl)ethanone] | – | – | 77.7 ± 2.47 µM | –

From publication PMC10955584, “New Benzimidazole-Triazole Derivatives as Topoisomerase I Inhibitors: Design, Synthesis, Anticancer Screening, and Molecular Modeling Studies” (ACS Omega, 2024)
